Counter-ions that a name gives are not always drawn.
Columns and labels:
MET [1] = target: T1, MET (Homo sapiens, UniProt P08581); assay: Test A: HTRF MET assay in 96-well format; format: biochemical; design: The His-Tev-MET (956-1390) recombinant DNA in pFastBac (Invitrogen) is transfected into insect cells; His (N, cleaved yes); Tev cleavage site (N, cleaved yes); made in house; host or cells: SF21 insect cells (baculovirus, pFastBac); details: 5 nM MET, 10 μM ATP
Protocol: I) Expression and Purification of MET, Cytoplasmic Domain
The His-Tev-MET (956-1390) recombinant DNA in pFastBac (Invitrogen) is transfected into insect cells and, after several viral amplification stages, the final baculovirus stock is tested for the expression of the protein of interest.
After infection for 72 h at 27° C. with the recombinant virus, the SF21 cell cultures are harvested by centrifugation and the cell pellets are stored at −80° C.
The cell pellets are resuspended in lysis buffer (buffer A [50 mM HEPES, pH 7.5, 250 mM NaCl, 10% glycerol, 1 mM TECP]; + cocktail of protease inhibitors, Roche Diagnostics, without EDTA, ref. 1873580), stirred at 4° C. until the mixture is homogeneous and then lysed mechanically using a “Dounce” type apparatus.
After centrifugation, the lysis supernatant is incubated for 2 h at 4° C. with nickel chelate resin (His-Trap 6 Fast Flow™, GE HealthCare). After washing with 20 volumes of buffer A, the suspension is packed into a column, and the proteins are eluted with a gradient of buffer B (buffer A+290 mM imidazole).
The fractions comprising the protein of interest for the purpose of electrophoretic analysis (SDS PAGE) are combined, concentrated by ultrafiltration (10 kDa cut-off) and injected onto an exclusion chromatography column (Superdex™ 200, GE HealthCare) equilibrated in buffer A.
After enzymatic cleavage of the histidine tag, the protein is reinjected onto a new IMAC nickel chelate chromatography column (His-Trap 6 Fast Flow™, GE HealthCare) equilibrated in buffer A. The fractions eluted with a gradient of buffer B and comprising the protein of interest after electrophoresis (SDS PAGE) are finally combined and conserved at −80° C.
For the production of autophosphorylated protein, the previous fractions are incubated for 1 h at ambient temperature after the addition of 2 mM ATP, 2 mM MgCl2, and 4 mM Na3VO4. After the reaction has been stopped with 5 mM of EDTA, the reaction mixture is injected onto a HiPrep desalifying column (GE HealthCare) preequilibrated in buffer A+4 mM Na3VO4, and the fractions comprising the protein of interest (SDS PAGE analysis) are combined and stored at −80° C. The degree of phosphorylation is verified by mass spectrometry (LC-MS) and by peptide mapping.
A) Test A: HTRF MET Assay in 96-Well Format
MET at a final concentration of 5 nM is incubated in a final volume of 50 μl of enzymatic reaction in the presence of the test molecule (for a final concentration range of from 0.17 nM to 10 μM, 3% DMSO final concentration) in 10 mM MOPS buffer, pH 7.4, 1 mM DTT, 0.01% Tween 20. The reaction is initiated with the substrate solution to obtain final concentrations of 1 μg/ml poly-(GAT), 10 μM ATP and 5 mM MgCl2. After incubation for 10 min at ambient temperature, the reaction is stopped with a 30 μl mix so as to obtain a final solution of 50 mM Hepes, pH 7.5, 500 mM potassium fluoride, 0.1% BSA and 133 mM EDTA in the presence of 80 ng of streptavidin 61SAXLB Cis-Bio Int. and 18 ng of anti-phosphotyrosine Mab PT66-Europium Cryptate per well. After incubation for 2 hours at ambient temperature, the reading is taken at 2 wavelengths, 620 nm and 665 nm, on a reader for the TRACE/HTRF technique and the % inhibition is calculated from the 665/620 ratios.
Target sequence in this assay (P08581 956-1390): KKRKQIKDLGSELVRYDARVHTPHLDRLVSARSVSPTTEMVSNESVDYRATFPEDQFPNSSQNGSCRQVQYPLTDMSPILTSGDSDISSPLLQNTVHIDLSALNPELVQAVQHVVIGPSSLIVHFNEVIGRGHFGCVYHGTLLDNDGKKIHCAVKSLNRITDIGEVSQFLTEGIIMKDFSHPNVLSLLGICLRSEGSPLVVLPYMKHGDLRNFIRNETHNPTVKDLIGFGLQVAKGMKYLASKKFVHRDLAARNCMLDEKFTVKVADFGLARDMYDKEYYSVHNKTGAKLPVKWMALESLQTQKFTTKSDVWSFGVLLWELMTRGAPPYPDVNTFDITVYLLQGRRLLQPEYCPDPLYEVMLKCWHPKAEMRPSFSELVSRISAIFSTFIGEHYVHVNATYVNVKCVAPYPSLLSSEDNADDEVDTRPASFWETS

[2] = system: HCT116 cells and MKN45 cells; assay: Test C: measurement of cell proliferation by 14C-thymidine pulse; format: cell-based; details: 14C-thymidine incorporation, 96 h of treatment; cell line not stated (HCT116 and MKN45 in method)
Protocol: C) Test C: Measurement of cell proliferation by ^14C-thymidine pulse
The cells are seeded into Cytostar 96-well plates in 180 μl for 4 hours at 37° C. and 5% CO2: HCT116 cells at a rate of 2500 cells per well in DMEM medium+10% foetal calf serum+1% L-glutamine and MKN45 cells at a rate of 7500 cells per well in RPMI medium+10% foetal calf serum+1% L-glutamine. After these 4 hours of incubation, the products are added in 10 μl as a 20-fold concentrated solution according to the dilution method mentioned for the ELISA. The products are tested at 10 concentrations in duplicate from 10 000 nM to 0.3 nM with an increment of 3.
After treatment for 72 h, add 10 μl of ^14C-thymidine at 10 μCi/ml to obtain 0.1 μCi per well. The ^14C-thymidine incorporation is measured on a Micro-Beta machine (Perkin-Elmer) after 24 hours of pulse and 96 h of treatment.
All the stages of the assay are automated on BIOMEK 2000 or TECAN stations.

MET [3] = target: T1, MET; assay: Test B: inhibition of the autophosphorylation of MET, ELISA technique (pppY1230, 1234, 1235) in MKN45 cells; format: cell-based; design: endogenous in cells; host or cells: MKN45 cells; details: 1 h treatment, phosphoMET ELISA
Protocol: B) Test B: Inhibition of the Autophosphorylation of MET; ELISA Technique (pppY1230, 1234, 1235)
a) Cell lysates: Seed MKN45 cells into 96-well plates (Cell coat BD polylysine) at 20 000 cells/well in 200 μl in RPMI medium+10% FCS+1% L-glutamine. Leave to adhere for 24 hours in an incubator.
The cells are treated the day after seeding with the products at 6 concentrations in duplicate for 1 h. At least 3 control wells are treated with the same final amount of DMSO.
Product dilution: Stock at 10 mM in pure DMSO—range from 10 mM to 30 μM with an increment of 3 in pure DMSO—intermediate 1/50 dilutions in culture medium and then removal of 10 μl added directly to the cells (200 μl): final range from 10 000 to 30 nM.
At the end of the incubation, carefully remove the supernatant and rinse with 200 μl of PBS. Next, place 100 μl of lysis buffer directly in the wells on ice and incubate at 4° C. for 30 minutes. Lysis buffer: 10 mM Tris HCl, pH 7.4, 100 mM NaCl, 1 mM EDTA, 1 mM EGTA, 1% Triton X-100, 10% glycerol, 0.1% SDS, 0.5% deoxycholate, 20 mM NaF, 2 mM Na3VO4, 1 mM PMSF and cocktail of antiproteases.
The 100 μl of lysates are transferred into a V-bottomed polypropylene plate and the ELISA is performed immediately, or the plate is frozen at −80° C.
b) PhosphoMET ELISA BioSource Kit KH00281
Into each well of the kit plate, add 70 μl of kit dilution buffer+30 μl of cell lysate or 30 μl of lysis buffer for the blanks. Incubate for 2 h with gentle agitation at ambient temperature.
Rinse the wells 4 times with 400 μl of kit washing buffer. Incubate with 100 μl of anti-phospho MET antibody for 1 hour at ambient temperature.
Rinse the wells 4 times with 400 μl of kit washing buffer. Incubate with 100 μl of anti-rabbit HRP antibody for 30 minutes at ambient temperature (except for the wells of chromogen alone).
Rinse the wells 4 times with 400 μl of kit washing buffer. Introduce 100 μl of chromogen and incubate for 30 minutes in the dark at ambient temperature.
Stop the reaction with 100 μl of stop solution. Read without delay at […], 0.1 second on Wallac Victor plate reader.
Target sequence in this assay (P08581 25-1390): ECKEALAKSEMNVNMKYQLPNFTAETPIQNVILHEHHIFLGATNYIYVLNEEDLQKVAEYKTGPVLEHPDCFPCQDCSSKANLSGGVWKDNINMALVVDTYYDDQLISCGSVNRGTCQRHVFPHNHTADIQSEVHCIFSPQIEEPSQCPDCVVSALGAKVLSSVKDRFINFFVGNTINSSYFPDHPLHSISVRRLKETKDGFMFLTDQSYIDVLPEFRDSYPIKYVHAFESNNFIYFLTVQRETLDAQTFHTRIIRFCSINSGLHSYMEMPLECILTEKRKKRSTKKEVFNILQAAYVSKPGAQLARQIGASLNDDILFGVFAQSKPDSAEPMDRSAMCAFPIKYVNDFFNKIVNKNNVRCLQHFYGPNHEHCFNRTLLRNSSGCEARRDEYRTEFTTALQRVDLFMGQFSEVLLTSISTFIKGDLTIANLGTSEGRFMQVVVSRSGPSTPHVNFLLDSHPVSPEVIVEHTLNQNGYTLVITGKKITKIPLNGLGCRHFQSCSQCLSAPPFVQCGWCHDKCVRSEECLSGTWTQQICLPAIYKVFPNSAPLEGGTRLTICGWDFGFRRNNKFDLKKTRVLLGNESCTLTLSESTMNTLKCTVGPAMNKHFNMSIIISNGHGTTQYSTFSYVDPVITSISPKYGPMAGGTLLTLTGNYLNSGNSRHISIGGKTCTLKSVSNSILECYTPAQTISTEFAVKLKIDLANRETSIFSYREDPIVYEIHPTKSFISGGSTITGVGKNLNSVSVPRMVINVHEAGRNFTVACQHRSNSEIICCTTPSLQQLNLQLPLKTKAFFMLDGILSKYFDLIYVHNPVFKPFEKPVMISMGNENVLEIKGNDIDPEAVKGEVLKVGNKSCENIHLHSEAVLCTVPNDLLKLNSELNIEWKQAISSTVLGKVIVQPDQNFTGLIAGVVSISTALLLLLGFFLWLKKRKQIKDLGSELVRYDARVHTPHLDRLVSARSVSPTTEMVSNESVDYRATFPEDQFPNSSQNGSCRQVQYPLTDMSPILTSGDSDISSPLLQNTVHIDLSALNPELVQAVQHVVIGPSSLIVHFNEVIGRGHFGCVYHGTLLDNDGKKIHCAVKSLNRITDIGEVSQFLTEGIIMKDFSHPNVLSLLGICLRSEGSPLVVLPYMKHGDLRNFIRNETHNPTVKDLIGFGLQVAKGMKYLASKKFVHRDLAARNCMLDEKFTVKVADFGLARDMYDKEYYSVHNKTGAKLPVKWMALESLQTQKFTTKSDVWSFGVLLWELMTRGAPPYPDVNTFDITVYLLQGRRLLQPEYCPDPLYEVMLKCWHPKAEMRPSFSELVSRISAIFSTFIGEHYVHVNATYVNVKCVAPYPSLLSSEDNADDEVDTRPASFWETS

Structure (SMILES) | IC50 (MET [1]) | IC50 [2] | IC50 (MET [3]) | melting point
CC(C)(C)OC(=O)NCC(=O)Nc1nc2ccc(Sc3cnc4ncccn34)cc2s1 [Example 11, 2-methylpropan-2-yl(2-{[6-(imidazo[1,2-a]pyrimidin-3-ylsulphanyl)-1,3-benzothiazol-2-yl]amino}-2-oxoethyl)carbamate] | < 100 nM | < 1000 nM | < 500 nM | > 260 °C
Nc1nc2ccc(Sc3cnc4ncc(NC5CCCCC5)cn34)cc2s1 [Example 25, 3-[(2-amino-1,3-benzothiazol-6-yl)sulphanyl]-N-cyclohexylimidazo[1,2-a]pyrimidin-6-amine] | < 100 nM | < 1000 nM | < 100 nM | 
O=C(Nc1nc2ccc(Sc3cnc4ncc(-c5cccc(F)c5)cn34)cc2s1)C1CC1 [Example 23, N-(6-{[6-(3-fluorophenyl)imidazo[1,2-a]pyrimidin-3-yl]sulphanyl}-1,3-benzothiazol-2-yl)cyclopropanecarboxamide] | < 100 nM | < 1000 nM | < 100 nM | 
O=C(Nc1nc2ccc(Sc3cnc4ncccn34)cc2s1)c1ccccc1 [Example 9, N-[6-(imidazo[1,2-a]pyrimidin-3-ylsulphanyl)-1,3-benzothiazol-2-yl]benzamide] | < 500 nM | < 1000 nM |  | > 260 °C
O=C(Nc1nc2ccc(Sc3cnc4ncc(OC5CCCCC5)cn34)cc2s1)C1CC1 [Example 24, N-(6-{[6-(cyclohexyloxy)imidazo[1,2-a]pyrimidin-3-yl]sulphanyl}-1,3-benzothiazol-2-yl)cyclopropanecarboxamide] | < 100 nM | < 1000 nM | < 100 nM | 
O=C(Nc1nc2ccc(Sc3cnc4ncccn34)cc2s1)C1CC1CN1CCOCC1 (stereo not drawn) [Example 14, (trans-B)-N-[6-(imidazo[1,2-a]pyrimidin-3-ylsulphanyl)-1,3-benzothiazol-2-yl]-2-(morpholin-4-ylmethyl)cyclopropanecarboxamide] | < 100 nM | < 1000 nM |  | 
O=C(Nc1nc2ccc(Sc3cnc4ncccn34)cc2s1)C1CC1CN1CCOCC1 (stereo not drawn) [Example 13, (trans-A)-N-[6-(imidazo[1,2-a]pyrimidin-3-ylsulphanyl)-1,3-benzothiazol-2-yl]-2-(morpholin-4-ylmethyl)cyclopropanecarboxamide] | < 100 nM | < 1000 nM | < 100 nM | 
O=C(Nc1nc2ccc([S+]([O-])c3cnc4ncccn34)cc2s1)C1CC1 (stereo not drawn) [Example 6, N-[6-(imidazo[1,2-a]pyrimidin-3-ylsulphinyl)-1,3-benzothiazol-2-yl]cyclopropanecarboxamide] | < 500 nM | < 1000 nM |  | > 260 °C

The remaining lines, values ahead:

IC50 (MET [1]) | IC50 [2] | IC50 (MET [3]) | melting point | Structure (SMILES)
< 100 nM | < 1000 nM | < 100 nM | 210 °C | CCN1CCN(CC(=O)Nc2nc3ccc(Sc4cnc5ncccn45)cc3s2)CC1 [Example 15, 2-(4-ethylpiperazin-1-yl)-N-[6-(imidazo[1,2-a]pyrimidin-3-ylsulphanyl)-1,3-benzothiazol-2-yl]acetamide]
< 500 nM | < 1000 nM |  |  | NCC(=O)Nc1nc2ccc(Sc3cnc4ncccn34)cc2s1 [Example 12, N-[6-(imidazo[1,2-a]pyrimidin-3-ylsulphanyl)-1,3-benzothiazol-2-yl]glycinamide dihydrochloride]
< 100 nM | < 1000 nM | < 100 nM |  | CN1CCN(CC(=O)Nc2nc3ccc(Sc4cnc5ncccn45)cc3s2)CC1 [Example 10, N-[6-(imidazo[1,2-a]pyrimidin-3-ylsulphanyl)-1,3-benzothiazol-2-yl]-2-(4-methylpiperazin-1-yl)acetamide]
< 100 nM | < 1000 nM | < 100 nM |  | CN1CCN(CC(=O)Nc2nc3ccc(Sc4cnc5ncccn45)cc3s2)CC1=O [Example 21, N-[6-(imidazo[1,2-a]pyrimidin-3-ylsulphanyl)-1,3-benzothiazol-2-yl]-2-(4-methyl-3-oxopiperazin-1-yl)acetamide]

From US20110263593A1, “NOVEL IMIDAZO[1,2-a]PYRIMIDINE DERIVATIVES, METHOD FOR THE PREPARATION THEREOF, USE THEREOF AS MEDICAMENTS, PHARMACEUTICAL COMPOSITIONS AND NOVEL USE, IN PARTICULAR AS MET INHIBITORS” (sanofi-aventis, priority 2008, published 2011)
